Three compounds from US11731965B2, “Tetrahydroprotoberberine compound, preparation method therefor and uses thereof, and pharmaceutical composition” (SHANGHAI INSTITUTE OF MATERIA MEDICA, CHINESE ACADEMY OF …, priority 2017, dated 2023) can be followed below.

For data set [1], the target named is T1, human recombinant D1 receptor (Homo sapiens, UniProt P21728).
T1 construct: expressed in transfected cells; host or cells: HEK293
As to the kind of experiment: D1 antagonistic activity test (LANCE cAMP, antagonism of dopamine-induced cAMP production in HEK293 cells). Type of data set: cell-based. Particulars: HEK293 cells expressing human recombinant D1 receptor; test concentration 0.1 nM to 10000 nM; read-out: D1 Antagonistic Activity (IC50, nmol/L). As for the experimental part: • 1) D1 antagonistic activity test
The D1 antagonism of the compound was evaluated by testing the antagonistic action of the compounds against dopamine on the induction of cAMP production in HEK293 cells. The cAMP concentration test was performed according to the method described in the kit instructions. The test concentration of the compound was 0.1 nM to 10000 nM. SCH23390 was used as a positive control. The IC50 was calculated by Excelfit software.

Data set [2] concerns the target T2, human recombinant D2 receptor (Homo sapiens, UniProt P14416).
T2 construct: expressed in transfected cells; host or cells: HEK293
The data set can be described thus: D2 antagonistic activity test (LANCE cAMP, antagonism of dopamine inhibition of cAMP production in HEK293 cells). Type of data set: cell-based. Particulars: HEK293 cells expressing human recombinant D2 receptor; test concentration 0.1 nM to 10000 nM; read-out: D2 Antagonistic Activity (IC50, nmol/L). On the procedure:
LANCE™ cAMP 384 Kit (PerkinElmer, USA) was used to test the antagonism of the compound against the D1 receptor using the HEK293 cells expressing human recombinant D1 receptor. The D1 antagonism of the compound was evaluated by testing the antagonistic action of the compounds against dopamine on the induction of cAMP production in HEK293 cells. The cAMP concentration test was performed according to the method described in the kit instructions. The test concentration of the compound was 0.1 nM to 10000 nM. SCH23390 was used as a positive control. The IC50 was calculated by Excelfit software. The test results of some compounds were shown in Table 1. • 2) D2 antagonistic activity test LANCE™ cAMP 384 Kit (PerkinElmer, USA) was used to test the antagonism of the compound against the D2 receptor using the HEK293 cells expressing human recombinant D2 receptor. The D2 antagonism of the compound was evaluated by testing the antagonistic action of the compounds against dopamine on the inhibition of cAMP production in HEK293 cells. The cAMP concentration test was performed according to the method described in the kit instructions. The test concentration of the compound was 0.1 nM to 10000 nM. Risperidone was used as a positive control. The IC50 was calculated by Excelfit software. The test results of some compounds were shown in Table 1 (ND means the test was not performed).

Data set [3] concerns PCP-induced high spontaneous activity in mice. The data set can be described thus: PCP-induced high spontaneous activity test in mice. Type of data set: in vivo, Male ICR mice. As for the experimental part: PCP (phencylidine) was dissolved in physiological saline to prepare a 7 mg/kg solution. The test compound was formulated with a 0.5% CMC-Na solution to a solution with suitable concentration, ready-to-use. Male ICR mice were 18-22 g. Mice were randomly divided into a solvent control group, a model control group, a positive control group, and each test drug group during the test. There were 8 mice in each group. Mice in each group were given each test drug by gavage. 45 minutes after the test drug was administered, mice were injected with a PCP (7 mg/kg) solution intraperitoneally. The spontaneous, open field video analysis system was used to record the mouse movement trajectory within 45 min after administration of test drug or saline, and then the mouse movement trajectory within 75 min after PCP administration. Spontaneous, open field video analysis system was used to analyze the mouse's movement trajectory, and the total distance of the movement of the mice in each group was counted. The result was expressed as mean±SD. Results were analyzed by one-way analysis of variance.

Data set [4] in a line: Metabolism of l-stepholidine (statement only, no method).
For data set [5], the system named is insomnia induced by injection with 4-Chlorophenylalanine (PCPA) in rats. As to the kind of experiment: Sedative and hypnotic effects, PCPA-induced insomnia model in rats treated with sodium pentobarbital. The data set is classed as in vivo, Wistar rats. As to conditions: for sleep time: FIG. 2. As for the experimental part:
The sedative and hypnotic effects of Example 60 were evaluated using a model of insomnia induced by injection with 4-Chlorophenylalanine (PCPA) in rats.
Dosage and method of administration: PCPA was administered at a dose of 150 mg/kg. […] was administered by a single intraperitoneal injection at 72 hours before the experiment in all Wistar rats. The diazepam group (DI) was administered at a dose of 2 mg/kg and 4 mg/kg, a single intraperitoneal injection; the test drug group was administered at a dose of 1 mg/kg and 3 mg/kg, a single intragastric administration; sodium pentobarbital was administered at a dose of 25 mg/kg, a single intraperitoneal injection. The administration volume was 10 ml/kg. On the day of the test, the model group was given sodium pentobarbital 30 minutes after the same volume of physiological saline was given; the DI group was given sodium pentobarbital 30 minutes after DI was administered; the test drug group was given sodium pentobarbital 60 minutes after the drug was administered.lndex observation: After the administration of sodium pentobarbital, the rats' response was closely observed. The time from the administration to 1 minute after the righting reflex disappeared is the sleep latency. The time from 1 minute after the righting reflex disappeared to the point that the righting reflex returned is sleep time.

For data set [6], the target named is T3, human recombinant 5-HT1A receptor (Homo sapiens, UniProt P08908).
T3 construct: expressed in transfected cells; host or cells: HEK293
T3 sequence (P08908 1-422): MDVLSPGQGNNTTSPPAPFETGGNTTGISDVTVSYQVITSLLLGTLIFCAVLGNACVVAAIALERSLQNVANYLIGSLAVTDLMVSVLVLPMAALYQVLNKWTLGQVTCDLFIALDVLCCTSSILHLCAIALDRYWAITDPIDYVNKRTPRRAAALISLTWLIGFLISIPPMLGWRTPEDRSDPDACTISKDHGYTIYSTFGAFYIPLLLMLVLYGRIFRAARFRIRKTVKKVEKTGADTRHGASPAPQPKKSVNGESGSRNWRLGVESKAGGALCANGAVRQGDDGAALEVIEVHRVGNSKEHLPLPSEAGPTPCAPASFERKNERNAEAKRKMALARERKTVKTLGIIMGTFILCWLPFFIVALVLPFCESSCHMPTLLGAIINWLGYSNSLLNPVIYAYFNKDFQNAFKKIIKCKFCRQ
As to the kind of experiment: 5-HT1A agonistic activity test (LANCE cAMP, inhibition of cAMP production in HEK293 cells). Type of data set: cell-based. As to conditions: HEK293 cells expressing human recombinant 5-HT1A receptor; test concentration 0.1 nM to 10000 nM; read-out: 5-HT1A Agonistic Activity (EC50, nmol/L). On the procedure:
• 3) 5-HT1A agonistic activity test
LANCE™ cAMP 384 Kit (PerkinElmer, USA) was used to test the agonistic effect of the compound on 5-HT1A receptor using the HEK293 cells expressing human recombinant 5-HT1A receptor. The 5-HT1A agonistic effect of the compound was evaluated by testing the inhibitory effect of the compound on cAMP production in HEK293 cells. The cAMP concentration test was performed according to the method described in the kit instructions. The test concentration of the compound was 0.1 nM to 10000 nM. 8-OH-DPAT was used as a positive control. The EC50 was calculated by Excelfit software.
On the technique in general: In TR-FRET formats the signal depends on donor and acceptor labels being close together.

T1 sequence (P21728 whole entry): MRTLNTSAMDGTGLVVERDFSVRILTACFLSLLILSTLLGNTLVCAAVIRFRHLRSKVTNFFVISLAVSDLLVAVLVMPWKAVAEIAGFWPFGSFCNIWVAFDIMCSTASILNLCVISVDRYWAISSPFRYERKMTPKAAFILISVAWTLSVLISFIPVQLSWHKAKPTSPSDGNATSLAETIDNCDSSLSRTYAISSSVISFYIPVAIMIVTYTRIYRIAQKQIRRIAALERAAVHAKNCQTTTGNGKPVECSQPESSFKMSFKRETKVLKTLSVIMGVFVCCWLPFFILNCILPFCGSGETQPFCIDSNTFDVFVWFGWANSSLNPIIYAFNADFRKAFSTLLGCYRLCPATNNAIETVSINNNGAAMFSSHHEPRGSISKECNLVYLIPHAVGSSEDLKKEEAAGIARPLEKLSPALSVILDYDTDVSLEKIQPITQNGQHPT
T2 sequence (P14416 whole entry): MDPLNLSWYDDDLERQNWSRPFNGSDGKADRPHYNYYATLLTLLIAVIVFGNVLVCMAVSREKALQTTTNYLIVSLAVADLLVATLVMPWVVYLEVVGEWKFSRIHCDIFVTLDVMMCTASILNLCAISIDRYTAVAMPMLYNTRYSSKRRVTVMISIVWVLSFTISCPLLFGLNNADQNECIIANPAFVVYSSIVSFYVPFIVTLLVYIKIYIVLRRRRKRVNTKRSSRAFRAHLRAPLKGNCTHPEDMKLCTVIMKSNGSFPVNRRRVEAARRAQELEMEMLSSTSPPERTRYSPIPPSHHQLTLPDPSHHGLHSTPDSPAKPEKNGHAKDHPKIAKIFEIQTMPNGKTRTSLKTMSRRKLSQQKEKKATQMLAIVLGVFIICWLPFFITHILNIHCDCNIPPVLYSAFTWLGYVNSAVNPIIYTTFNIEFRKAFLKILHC

`COc1cc2c(cc1O)[C@@H]1Cc3ccc(O)c(OC)c3CN1CC2` [l-SPD, L-Stepholidine, reference compound]: the IC50 is 7.7 nmol/L in data set [1] and 37 nmol/L in data set [2]. Moreover, the “duration of effect / efficacy” value in data set [3] (oral, PCP-induced high spontaneous activity in mice) is recorded as “short duration of effect”. The metabolism result in data set [4] is given as “fast metabolism”.

As for `COc1cc2c(cc1NS(C)(=O)=O)[C@@H]1Cc3ccc(OC)c(OC)c3CN1CC2` [Example 60, (S)-2-methanesulfonylamino-3,9,10-trimethoxy-6,8,13,13a-tetrahydro-5H-dibenzo[a,g] quinolizine], the IC50 came out at 525 nmol/L in data set [1] and 6.2 nmol/L in data set [2]. The sleep time result in data set [5] (1 mg/kg single intragastric administration, sodium pentobarbital 25 mg/kg ip 60 minutes later) is given as “significantly prolong”; in data set [5] (3 mg/kg single intragastric administration, sodium pentobarbital 25 mg/kg ip 60 minutes later) it was “prolong”. Moreover, in data set [5] (3 mg/kg single intragastric administration, sodium pentobarbital 25 mg/kg ip 60 minutes later, FIG. 1, *P<0.05 vs model group), the sleep latency result is recorded as “significantly reduce”. The “hypnotic effect (overall)” value in data set [5] (PCPA-induced insomnia rats, 1 and 3 mg/kg intragastric) is given as “good hypnotic effect”.

For the compound `COc1cc2c(cc1CNC(C)=O)[C@@H]1Cc3ccc(OC)c(OC)c3CN1CC2` [Example 11, (S)-2-acetaminomethyl-3,9,10-trimethoxy-6,8,13,13a-tetrahydro-5H-dibenzo[a,g] quinolizine], the IC50 came to 500 nmol/L in data set [1] and 750 nmol/L in data set [2]. Moreover, the EC50 in data set [6] was 1700 nmol/L. Further, in data set [3] (dose by gavage that significantly reduces PCP (7 mg/kg ip) induced high spontaneous activity of mice vs model group), the “Effective Dose” value turned out to be 10 mg/kg.
